This note sets out measurements from patent US20030186943A1, “Substituted gamma-phenyl-delta-lactams and uses related thereto” (Inflazyme Pharmaceuticals Ltd., priority 1998, published 2003).

The test system of experiment [1] is primary human neutrophils. Put plainly: Generation of reactive oxygen species by fMLP-activated neutrophils (luminol-enhanced chemiluminescence). Particulars: Neutrophil. The format is cell-based. The method, boiled down:
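Fresh primary human neutrophils (5×10^6 cells/mL) preincubated 30 min at 37° C with compound in Ca^2+-containing HBSS pH 7.4, then stimulated with 1 μM fMLP in presence of 1 μM luminol. Chemiluminescence integrated over 30 min; IC50 from non-linear regression versus 0.25% DMSO control.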

In experiment [2] the test system is primary human neutrophils. The experiment in a line: fMLP-induced human neutrophil chemotaxis. The format is cell-based. Particulars: for IC50: fMLP-induced chemotaxis, X marks this range, read-out: IC50 RANGE (μM) 10-100. The protocol:
Chemotaxis buffer containing the chemoattractant fMLP (10 μM) was added to each well of a chemotaxis plate and a filter was inserted ensuring contact between the filter and the chemotaxis buffer in the well. A submaximal concentration of chemoattractant was used which had been determined in previous experiments. […] Freshly isolated neutrophils (1×10^6) were incubated with vehicle (0.125% DMSO)±test compound for 1 hr at 37° C. Treatment and control cell suspensions were then gently resuspended and 20 μL of cells was added to the top side of the filter on each well. The plate was incubated for 1.5 hours at 37° C. under 5% CO2. Cells were then removed from the top side of the filter by aspiration and the entire plate was centrifuged. The filter was removed and known concentrations of cells were added to unused wells to prepare a standard curve. XTT (Sigma; Catalogue No. X 4251)/PMS (Sigma; Catalogue No. P 7626) solution prepared in buffer was added to each well and the cells were further incubated 1-2 hours and measured for absorbance at 450 nm. Absorbance values were converted to cell numbers using the standard curve. IC50 values are averages from at least three separate experiments with triplicate determinations.

The subject of experiment [3] is Resiniferitoxin-induced mouse ear edema. The experiment in a line: Resiniferitoxin-induced mouse ear edema. It is filed as in vivo. The note with it: Mus musculus, CD1 mice; for inhibition in vivo at 100 mg/kg: ip, intraperitoneal administration; for inhibition in vivo at 50 µg/ear: topical administration, 50 μg/ear, RTX 0.1 μg/ear; for inhibition in vivo at 10 mg/kg: oral administration. The source says:
One of the primary characteristics of inflammation is an increase in vascular dilation and permeability leading to the extravasation of, and collection of fluids in, the interstitium, resulting in redness and swelling. Rheumatoid arthritis in particular is characterized by pronounced edema of affected joints resulting in significant pain and stiffness. The mouse ear inflammation model is a standard in vivo assay for inflammation that is based on an increase in ear weight which is attributable to edema induced by inflammatory mediators. RTX (resiniferitoxin; Sigma; Catalogue No. R 8756)) is a diterpene isolated from the plant Euphorbia poisonii and is an ultrapotent analog of capsaicin. RTX acts by selectively stimulating nociceptive and thermal-sensitive nerve ending in tissue, eliciting neurogenic edema. Compounds of the present invention, whether administered topically, intraperitoneally or orally, inhibited development of edema induced by topical application of RTX.
Mice (CD1, Charles River Laboratories) were separated into groups (n—5−8) and tagged. Control mice had RTX (0.1 μg/ear) applied topically to the inner and outer sides of the left ear and vehicle applied to the right ear as a control. For topical administration, experimental/treatment mice received RTX+test compound solution (50 μg/ear) on the left ear and acetone on the right ear. For intraperitoneal (i.p.) administration, 100 mg/kg test compound dissolved in 100 μL PEG 200:saline (1:1) was injected followed by a 30 minute waiting period then the standard 30 minute RTX edema induction. For oral (p.o.) administration, 10 mg/kg test compound in 100 μL PEG-200 was given to animals, then edema induced using 0.1 μg/ear RTX after a 1.5 hour waiting period. After edema induction, mice were sacrificed, and a standard disc of ear tissue was removed. Each disk of tissue was immediately weighed to the nearest 1/10th of a mg. Data were analyzed by taking the difference of each left ear from the right ear, calculating the mean+/−SEM. Statistical significance was tested by 2-sample t-test on the left/right ear weight differences of the control group vs. the experimental group.

Experiment [4] concerns the target PDE 1 (bovine heart) (Bos taurus, UniProt P14100). Put plainly: PDE isozyme specificity: PDE 1. The format is biochemical. The source says:
(§1) Compound 12 was screened for activity against 5 of the major classes of mammalian cyclic nucleotide phosphodiesterase (termed PDE 1 through 5). PDE's 1 through 4 utilize cAMP as substrate while PDE 5 uses cGMP. The broad specificity PDE inhibitor 3-isobutyl-1-methylxanthine (IBMX; Sigma; Catalogue No. 17018)) was used as a positive control in all assays. PDE's for the various assays were partially purified from the following cells/tissues; PDE 1 (bovine heart), PDE 2 (human platelets), PDE 3 (human platelets), PDE 4 (human promonocytic U937 cells) and PDE 5 (human platelets).
(§2) Test compounds (at 100 μM) were screened for activity against PDE 1,2 and 5, using standard biochemical methods performed at MDS Panlabs (Bothell, Wash., USA). The broad specificity PDE inhibitor 3-isobutyl-1-methylxanthine (IBMX) was used as a positive control in all assays. PDE's for the various assays were partially purified from the following cells/tissues; PDE 1 (bovine heart), PDE 2 (human platelets) and PDE 5 (human platelets). For purposes of comparison, the effects on PDE3 (human platelets) and PDE4 (human U937 monocytic cell line) described above are presented again in Table 12.

Experiment [5] concerns the target T1, PDE 5 (human platelets) (Homo sapiens, UniProt O76074).
T1 construct: PDE's for the various assays were partially purified from the following cells/tissues; tissue MDS Panlabs (assay service); host or cells: human platelets
Put plainly: PDE isozyme specificity: PDE 5. The note with it: for inhibition at 100 µM: read-out: % inhibition by 100 μM test compound 1-25, PDE5, X marks this range. The format is biochemical.
Excerpt: as §1, §2

The mark [6] stands for this setting: read-out: IC50 RANGE (μM) <1, ROS production, X marks this range.
Where [7] appears, read: read-out: % inhibition by 100 μM test compound 50-75, PDE1, X marks this range.
The mark [8] stands for this setting: ROS production, X marks this range, read-out: IC50 RANGE (μM) 1-10.

Where two headings read alike, the source gives them in different places.

Sequence of PDE 1 (bovine heart) (P14100 35-530): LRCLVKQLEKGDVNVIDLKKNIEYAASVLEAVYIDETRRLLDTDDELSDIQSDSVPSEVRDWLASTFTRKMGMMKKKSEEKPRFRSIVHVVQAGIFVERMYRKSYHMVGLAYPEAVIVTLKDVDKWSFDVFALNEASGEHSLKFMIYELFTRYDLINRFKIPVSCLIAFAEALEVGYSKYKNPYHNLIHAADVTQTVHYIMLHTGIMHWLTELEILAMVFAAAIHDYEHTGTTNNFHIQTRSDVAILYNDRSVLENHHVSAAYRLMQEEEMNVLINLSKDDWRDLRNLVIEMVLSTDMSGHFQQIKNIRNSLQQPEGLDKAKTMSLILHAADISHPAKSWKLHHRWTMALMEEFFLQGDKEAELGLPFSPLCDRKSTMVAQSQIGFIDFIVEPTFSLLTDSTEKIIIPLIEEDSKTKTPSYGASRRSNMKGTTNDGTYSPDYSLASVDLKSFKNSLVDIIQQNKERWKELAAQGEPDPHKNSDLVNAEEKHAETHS

By IC50 is commonly meant the concentration needed to halve the response being measured. The term inhibition in vivo denotes the share of the control response that was lost under treatment. High values mean strong suppression, low ones little suppression. Broadly, the inhibition is the change of the read-out against control, counted positive when it falls. For `COc1cc(C[C@@H]2CC(c3ccc(OC)c(OC)c3)COC2=O)ccc1O` (mixture of isomers) [Compound 12], the IC50 is below 1 µM in experiment [1] (setting [6]) and 10 to 100 µM in experiment [2]. The compound further displayed an inhibition in vivo at 100 mg/kg in experiment [3] of 61%. This compound also showed an inhibition in vivo at 50 µg/ear in experiment [3] of 85%. Further, the figures for the inhibition at 100 µM in experiment [4] (setting [7]) and in experiment [5] were 50 to 75% and 1 to 25%, respectively. For the same compound, the “inhibitory effect on PDE 5” value in experiment [5] (human platelets, cGMP substrate) was “no significant inhibitory effects”.
Take `COc1cc(C[C@@H]2C[C@@H](c3ccc(OC)c(OC)c3)COC2=O)ccc1O` [Compound 30]: the IC50 in experiment [1] (setting [8]) fell in the range of 1 to 10 µM. The IC50 in experiment [2] is 10 to 100 µM. In experiment [3], this compound displayed an inhibition in vivo at 100 mg/kg of 28% and an inhibition in vivo at 50 µg/ear of 98%.
Consider `COc1ccc([C@@H]2CCC(=O)OC2)cc1OC1CCCC1` [Compound 41], for which the IC50 in experiment [1] (setting [6]) was below 1 µM. The inhibition at 100 µM lay in the range of 1 to 25% in experiment [4] (read-out: % inhibition by 100 μM test compound 1-25, PDE1, X marks this range) and 1 to 25% in experiment [5].
Regarding `COc1cc(CC2C[C@@H](c3ccc(OC)c(OC4CCCC4)c3)COC2=O)ccc1O` (stereo partly shown) [Compound 43], the IC50 in experiment [1] (setting [6]) is below 1 µM. In addition, in experiment [3], at 100 mg/kg the inhibition in vivo was 72%, the inhibition in vivo at 10 mg/kg is 45% and the inhibition in vivo at 50 µg/ear was found to be 98%. Further, in experiment [4] (setting [7]), the inhibition at 100 µM was 50 to 75%. Also, the inhibition at 100 µM in experiment [5] was 1 to 25%.
For `COc1ccc([C@H]2CNC(=O)C(Cc3ccc(OCc4ccccc4)c(OC)c3)C2)cc1OC` (stereo partly shown) [Compound 54], the IC50 in experiment [1] (setting [8]) lay within 1 to 10 µM.
Same read-out and setting: the figure for `COc1cc(CC2C[C@@H](c3ccc(OC)c(OC)c3)CNC2=O)ccc1O` (stereo partly shown) [Compound 55] is 1 to 10 µM.
With `COc1cc(CC2C[C@@H](c3ccc(OC)c(OC4CCCC4)c3)CNC2=O)ccc1O` (stereo partly shown) [Compound 62], the IC50 in experiment [1] (ROS production, X marks this range, read-out: IC50 RANGE (μM) 10-100) lay within 10 to 100 µM. For the same compound, the inhibition in vivo at 10 mg/kg in experiment [3] stood at 30%.
Compound `COc1ccc(C2CNC(=O)C2)cc1OC1CCCC1` (stereo not shown) [Rolipram, reference compound] showed an inhibition at 12.5 µM in experiment [2] (at 12.5 μM, positive control) of 85%.
